The target in experiment [1] is T1, cytoplasmic domain of the human CSF-1R (Homo sapiens, UniProt P07333).
T1 construct: Recombinant protein corresponding to the cytoplasmic domain of the human CSF-1R; purchased Invitrogen Corporation, Carlsbad, Calif; U.S.A. PV3249
T1 sequence (P07333 539-972 limits assumed): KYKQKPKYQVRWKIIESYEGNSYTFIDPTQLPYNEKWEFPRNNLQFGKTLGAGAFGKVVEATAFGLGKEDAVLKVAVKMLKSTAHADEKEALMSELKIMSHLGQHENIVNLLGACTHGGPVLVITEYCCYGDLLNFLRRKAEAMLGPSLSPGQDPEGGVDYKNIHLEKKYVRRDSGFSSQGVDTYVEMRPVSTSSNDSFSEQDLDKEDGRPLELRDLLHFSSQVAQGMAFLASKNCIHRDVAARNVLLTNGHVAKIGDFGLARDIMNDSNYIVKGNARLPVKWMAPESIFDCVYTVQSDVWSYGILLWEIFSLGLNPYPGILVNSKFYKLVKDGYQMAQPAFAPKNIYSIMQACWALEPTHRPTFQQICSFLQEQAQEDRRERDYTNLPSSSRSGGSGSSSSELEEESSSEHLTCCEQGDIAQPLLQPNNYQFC
The experiment is described as follows: In vitro kinase assay for CSF-1R (AlphaScreen). Type of experiment: biochemical. Particulars: tested at about 1 μM. The procedure: The kinase activity of various protein tyrosine kinases can be measured by providing ATP and a suitable peptide or protein tyrosine-containing substrate, and assaying the transfer of phosphate moiety to the tyrosine residue. Recombinant protein corresponding to the cytoplasmic domain of the human CSF-1R was purchased from Invitrogen Corporation, Carlsbad, Calif. U.S.A. (#PV3249). For each assay, test compounds were serially diluted, starting at 25 μM with 3 fold dilutions, in DMSO in 384 well plates then mixed with an appropriate kinase reaction buffer consisting of 50 mM Hepes, 5 mM MgCl2, 10 mM MnCl2, 0.1% BSA, pH 7.5, 1.0 mM dithiothreitol, 0.01% Tween 80 plus […]. Kinase protein and an appropriate biotinylated peptide substrate at 50 nM were added to give a final volume of 20 μL, reactions were incubated for 2 hours at room temperature and stopped by the addition of 10 μL of 45 mM EDTA, 50 mM Hepes pH 7.5. Added to the stopped reaction mix was 30 μL of PT66 Alphascreen beads (Perkin Elmer, Boston, Mass., U.S.A.). The reaction was incubated overnight and read on the Envision (Perkin Elmer). Phosphorylated peptide product was measured with the AlphaScreen system (Perkin Elmer) using acceptor beads coated with anti-phosphotyrosine antibody PT66 and donor beads coated with streptavidin that emit a fluorescent signal at the 520-620 nm emission wave length if in close proximity. The concentration of each compound for 50% inhibition (IC50) was calculated by non-linear regression using XL Fit data analysis software.
CSF-1R kinase was assayed in 50 mM Hepes pH 7.0, 5 mM MgCl2, 10 mM MnCl2, 1 mM DTT, 1 mg/mL BSA, 1.0 μM ATP, and 0.05 μM biotin-GGGGRPRAATF-NH2 (SEQ ID NO:2) peptide substrate. CSF-1R kinase was added at final concentration of 4 nM.

Another experiment concerns the target T2, cKIT (Homo sapiens, UniProt P10721).
T2 construct: The kinase domain of cKIT was assayed in 50 mM Hepes; purchased Upstate 14-559
As to the kind of experiment: Inhibition of cKIT kinase in an in vitro biochemical assay (alphascreen). Particulars: tested at about 1 μM. The procedure: (§1) The IC50 values for the inhibition of RTKs were determined in the alphascreen format measuring the inhibition by compound of phosphate transfer to a substrate by the respective enzyme. Briefly, the respective RTK domain purchased as human recombinant protein (cKIT Upstate #14-559, PDGFRb Invitrogen #P3082) were incubated with serial dilutions of compound in the presence of substrate and ATP concentrations within 3 times the Km of the enzyme.
(§2) The kinase domain of cKIT was assayed in 50 mM Hepes, pH=7.5, 5 mM MgCl2, 10 mM MnCl2, 1 mM DTT, 0.1% BSA with 0.06 uM biotinylated peptide substrate (GGLFDDPSYVNVQNL-NH2) and 15 μM ATP (ATP KM apparent =15 μM). The kinase domain of PDGFRβ was assayed in 50 mM Hepes, pH=7.5, 20 mM MgCl2, 1 mM DTT, 0.1% BSA with 0.1 μM biotinylated peptide substrate (GGLFDDPSYVNVQNL-NH2) and 10 μM ATP (ATP KM apparent=25 μM). Reactions were incubated at room temperature for 3 to 4 hr and stopped with buffer (20 mM EDTA, 0.01% Tween-20 for both PDGFRβ and cKIT). Alphascreen PY20 beads were added to the stopped cKIT reactions and PY20 Ab/Protein A Alphascreen beads were added to the PDGFRβ stopped reactions. Both reactions were incubated overnight and read on the Alphascreen reader. The concentration of compound for 50% inhibition (IC50) was calculated employing non-linear regression using XL-Fit data analysis software. As a control compound, staurosporine is run in every assay and a Z′>0.5 is required to validate results.

The next experiment addresses T3, PDGFRb (Homo sapiens, UniProt P09619).
T3 construct: The kinase domain of PDGFRβ was assayed in 50 mM Hepes; purchased Invitrogen P3082
As to the kind of experiment: Inhibition of PDGFRb kinase in an in vitro biochemical assay (alphascreen). Particulars: tested at about 1 μM; read-out: PDGFR % inhibition at 1 μM. How it is done:
as §1, §2
(In general: Bead proximity is the source of the signal in Alpha formats.)

A word on the inhibition: it is the share of the control response that was lost under treatment.

T2 sequence (P10721 589-937 limits assumed): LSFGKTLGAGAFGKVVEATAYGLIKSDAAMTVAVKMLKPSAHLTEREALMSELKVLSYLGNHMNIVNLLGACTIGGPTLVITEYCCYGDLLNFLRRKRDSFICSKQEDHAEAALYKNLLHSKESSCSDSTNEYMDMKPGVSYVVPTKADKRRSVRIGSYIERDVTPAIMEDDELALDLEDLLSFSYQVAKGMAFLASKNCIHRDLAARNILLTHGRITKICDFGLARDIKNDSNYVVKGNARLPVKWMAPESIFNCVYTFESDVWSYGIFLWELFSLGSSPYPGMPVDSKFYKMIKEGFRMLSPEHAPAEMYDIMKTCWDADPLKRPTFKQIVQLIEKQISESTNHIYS
T3 sequence (P09619 600-962 limits assumed): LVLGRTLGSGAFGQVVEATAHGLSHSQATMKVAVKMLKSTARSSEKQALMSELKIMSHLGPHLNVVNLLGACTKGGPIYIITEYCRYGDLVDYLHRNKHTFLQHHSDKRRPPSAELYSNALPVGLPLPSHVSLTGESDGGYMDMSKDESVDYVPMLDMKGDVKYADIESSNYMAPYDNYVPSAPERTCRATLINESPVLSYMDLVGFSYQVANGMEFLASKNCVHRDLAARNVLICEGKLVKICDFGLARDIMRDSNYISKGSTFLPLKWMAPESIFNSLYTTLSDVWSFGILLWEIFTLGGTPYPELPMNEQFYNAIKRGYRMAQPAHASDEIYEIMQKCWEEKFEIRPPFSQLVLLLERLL

For the molecule `CCOC(=O)N1CCC(Nc2ncc3cc(Oc4ccnc(C(=O)NC)c4)ccc3n2)CC1` [Example 56, ethyl 4-(6-(2-(methylcarbamoyl)pyridin-4-yloxy)quinazolin-2-ylamino)piperidine-1-carboxylate], the inhibition at 1 µM in experiment [1] was 84%; at cKIT, 17%; at PDGFRb, less than 1%.

Take `CNC(=O)c1cc(Oc2ccc3nc(Nc4ccccc4N4CCN(C)CC4)ncc3c2)ccn1` [Example 54, N-methyl-4-(2-(2-(4-methylpiperazin-1-yl)phenylamino)quinazolin-6-yloxy)picolinamide]: the inhibition at 1 µM in experiment [1] came to 65%; on cKIT, 47%; at PDGFRb, 20%.

Take `CNC(=O)c1cc(Oc2ccc3nc(N[C@H](C)c4ccccc4)ncc3c2)ccn1` [Example 38, (R)-N-methyl-4-(2-(1-phenylethylamino)quinazolin-6-yloxy)picolinamide]: the values for the inhibition at 1 µM (in experiment [1]; against cKIT; on PDGFRb) were 99%, 92% and 46%, respectively.

With `CNC(=O)c1cc(Oc2ccc3nc(N[C@H](C)C4CCCCC4)ncc3c2)ccn1` [Example 15, (R)-4-(2-(1-cyclohexylethylamino)quinazolin-6-yloxy)-N-methylpicolinamide], the inhibition at 1 µM stood at 100% in experiment [1], 50% at cKIT and 26% at PDGFRb.

In the case of `CNC(=O)c1cc(Oc2ccc3nc(N[C@H]4CCCC[C@@H]4O)ncc3c2)ccn1` [Example 12], the values for the inhibition at 1 µM (in experiment [1]; on cKIT; on PDGFRb) were 100%, 39% and 39%, respectively.

On to `CCOc1ccccc1Nc1ncc2cc(Oc3ccnc(C(=O)NC)c3)ccc2n1` [Example 45, 4-(2-(2-ethoxyphenylamino)quinazolin-6-yloxy)-N-methylpicolinamide], for which the inhibition at 1 µM in experiment [1] was determined as 99%; on cKIT it was 38%; on PDGFRb it was 12%.

On to `CNC(=O)c1cc(Oc2ccc3nc(NCc4cccc5c4OCCO5)ncc3c2)ccn1` [Example 42, 4-(2-((2,3-dihydrobenzo[b][1,4]dioxin-5-yl)methylamino)quinazolin-6-yloxy)-N-methylpicolinamide], for which the values for the inhibition at 1 µM (in experiment [1]; against cKIT; on PDGFRb) were 100%, 99% and 66%, respectively.

With `CNC(=O)c1cc(Oc2ccc3nc(Nc4ccccc4OCCOC)ncc3c2)ccn1` [Example 69, 4-(2-(2-(2-methoxyethoxy)phenylamino)quinazolin-6-yloxy)-N-methylpicolinamide], the values for the inhibition at 1 µM (in experiment [1]; against cKIT; on PDGFRb) were 99%, 17% and 5%, respectively.

In the case of `CNC(=O)c1cc(Oc2ccc3nc(N[C@@H](CO)C4CCCCC4)ncc3c2)ccn1` [Cmpd 17, (R)-4-(2-(1-cyclohexyl-2-hydroxyethylamino)quinazolin-6-yloxy)-N-methylpicolinamide], the inhibition at 1 µM came out at 100% in experiment [1], 61% on cKIT and 38% at PDGFRb.

Turning to `CNC(=O)c1cc(Oc2ccc3nc(N[C@H](C)C4CCCCC4)[nH]c3c2)ccn1` [Example 83, (R)-4-(2-(1-cyclohexylethylamino)-1H-benzo[d]imidazol-6-yloxy)-N-methylpicolinamide], the inhibition at 1 µM (in experiment [1]; on cKIT; at PDGFRb) was 100% throughout.

Consider `CNC(=O)c1cc(Oc2ccc3nc(N[C@H](CO)Cc4ccccc4)ncc3c2)ccn1` [Example 13], for which the inhibition at 1 µM turned out to be 88% in experiment [1], 28% on cKIT and 24% on PDGFRb.

`CNC(=O)c1cc(Oc2ccc3nc(Nc4ccccc4OCCCO)ncc3c2)ccn1` [Example 71, 4-(2-(2-(3-hydroxypropoxy)phenylamino)quinazolin-6-yloxy)-N-methylpicolinamide]: the results for the inhibition at 1 µM (in experiment [1]; against cKIT; on PDGFRb) were 90%, less than 1% and 11%, respectively.

These data come from patent publication US20100261679A1 (priority 2007, published 2010).
